A short description of experiment [1]: Inhibition of HCV 1a H77 NS5B polymerase after 3 hrs by [3H]UTP incorporation assay. On the set-up: species or system Hepatitis C virus (isolate H77).
The nature of experiment [2]: Inhibition of HCV 1b BK NS5B polymerase after 3 hrs by [3H]UTP incorporation assay. Details: species or system Hepatitis C virus (isolate BK).
Experiment [3] concerns Hepatitis C virus. Kind of experiment: Antiviral activity against HCV 1a isolate H77 infected in EN5-3 cells by SEAP reporter gene assay. The experiment is classed as functional, organism-based, Hepacivirus hominis. The conditions noted are these: genotype 1a H77, EN5-3.
Experiment [4] relates to Hepatitis C virus. Kind of experiment: Antiviral activity against HCV 1b N infected in EN5-3 cells by SEAP reporter gene assay. The experiment is classed as functional, organism-based, Hepacivirus hominis. As to conditions: genotype 1b strain N. On the technique in general: In a reporter assay the amount or activity of a reporter protein is the signal.

This is an account of results in ChEMBL document CHEMBL1681718, “Hepatitis C NS5B polymerase inhibitors: functional equivalents for the benzothiadiazine moiety” (Bioorg Med Chem Lett, 2011).

Structures are written as SMILES.

As to `CC(C)(C)CC[C@@]1(C)C(=O)/C(=C2/C=C(C=O)c3cc(NS(C)(=O)=O)ccc3N2)C(=O)c2ccccc21`, the IC50 – broadly, the concentration that inhibits the measured activity by half – is 15 nM in experiment [1] and 25 nM in experiment [2]. For the same molecule, the results for the concentration for a half-maximal effect (EC50) in the experiment with Hepatitis C virus [3] and in the experiment with Hepatitis C virus [4] were 1200 nM and 168 nM, respectively.

For `CC(C)(C)CC[C@@]1(C)C(=O)/C(=C2/C=Cc3cc(NS(C)(=O)=O)ccc3N2)C(=O)c2ccccc21`, the IC50 in experiment [1] turned out to be 17 nM; in experiment [2] it was 29 nM. The EC50 (commonly the concentration that produces a half-maximal response) in the experiment on Hepatitis C virus [3] stood at 82 nM; in the experiment on Hepatitis C virus [4] it was 22 nM.

Consider `CC(C)(C)CC[C@@]1(C)C(=O)/C(=C2/C=C(C(=O)O)c3cc(NS(C)(=O)=O)ccc3N2)C(=O)c2ccccc21`, for which the IC50 in experiment [1] was determined as 3 nM; in experiment [2] it was 5 nM. In addition, the EC50 in the experiment with Hepatitis C virus [3] was 3320 nM; in the experiment on Hepatitis C virus [4], 221 nM.

For the molecule `CCOC(=O)C1=C/C(=C2\C(=O)c3ccccc3[C@@](C)(CCC(C)(C)C)C2=O)Nc2ccc(NS(C)(=O)=O)cc21`, the IC50 in experiment [1] is 315 nM; in experiment [2], 739 nM. The results for the EC50 with Hepatitis C virus [3] and with Hepatitis C virus [4] were 3080 nM and 660 nM, respectively.

On to `CC1=C/C(=C2\C(=O)c3ccccc3[C@@](C)(CCC(C)(C)C)C2=O)Nc2ccc(NS(C)(=O)=O)cc21`, for which the IC50 in experiment [1] is 32 nM; in experiment [2], 52 nM. Also, the EC50 is 135 nM in the experiment on Hepatitis C virus [3] and 20 nM with Hepatitis C virus [4].

For `CC(C)(C)CC[C@@]1(C)C(=O)/C(=C2/C=C(CO)c3cc(NS(C)(=O)=O)ccc3N2)C(=O)c2ccccc21`, the values for the IC50 in experiment [1] and in experiment [2] were 12 nM and 56 nM, respectively. Further, the EC50 in the experiment with Hepatitis C virus [3] turned out to be 781 nM; with Hepatitis C virus [4], 50 nM.

On to `CC(C)(C)CC[C@@]1(C)C(=O)/C(=C2/C=Cc3ccccc3N2)C(=O)c2ccccc21`, for which the IC50 was found to be 1680 nM in experiment [1] and 5550 nM in experiment [2].

On to `CNC(=O)C1=C/C(=C2\C(=O)c3ccccc3[C@@](C)(CCC(C)(C)C)C2=O)Nc2ccc(NS(C)(=O)=O)cc21`, for which the values for the IC50 in experiment [1] and in experiment [2] were 133 nM and 333 nM, respectively. The results for the EC50 in the experiment on Hepatitis C virus [3] and with Hepatitis C virus [4] were 1040 nM and 245 nM, respectively.

For `CC(C)(C)CC[C@@]1(C)C(=O)C(C2=NCc3cc(NS(C)(=O)=O)ccc3N2)=C(O)c2ccccc21`, the IC50 in experiment [1] is 830 nM; in experiment [2] it was 4200 nM.

`CN(C)C(=O)C1=C/C(=C2\C(=O)c3ccccc3[C@@](C)(CCC(C)(C)C)C2=O)Nc2ccc(NS(C)(=O)=O)cc21`: the 50% inhibitory concentration (IC50) amounted to 72 nM in experiment [1] and 238 nM in experiment [2]. For the same molecule, the EC50 with Hepatitis C virus [3] is 932 nM; with Hepatitis C virus [4], 99 nM.

Turning to `CC(C)(C)CC[C@@]1(C)C(=O)C(C2=NS(=O)(=O)c3cc(NS(C)(=O)=O)ccc3N2)=C(O)c2ccccc21`, the 50% inhibitory concentration (IC50) in experiment [1] was found to be 4 nM; in experiment [2], 7 nM. In addition, the EC50 with Hepatitis C virus [3] is 4 nM; in the experiment with Hepatitis C virus [4], 2 nM.

For `CC(C)CCC1=C/C(=C2\C(=O)c3ccccc3[C@@](C)(CCC(C)(C)C)C2=O)Nc2ccc(NS(C)(=O)=O)cc21`, the IC50 is 4300 nM in experiment [1] and 1020 nM in experiment [2].
